Data reported in US20250074916A1, “BRM TARGETING COMPOUNDS AND ASSOCIATED METHODS OF USE” (Prelude Therapeutics Incorporated, priority 2023, published 2025).

Columns and labels:
SMARCA4 = target: T1, SMARCA4 (Homo sapiens, UniProt P51532); assay: SMARCA4 HiBiT degradation assay in HeLa cells; assay type: cell-based; details: 18 hours incubation
T1 construct: SMARCA4-HiBiT knock-in Hela monoclonal cell (CS3023226) were purchased from Promega; host or cells: HeLa SMARCA4-HiBiT knock-in monoclonal cells (heterozygous knock-in)
T1 sequence (P51532 whole entry): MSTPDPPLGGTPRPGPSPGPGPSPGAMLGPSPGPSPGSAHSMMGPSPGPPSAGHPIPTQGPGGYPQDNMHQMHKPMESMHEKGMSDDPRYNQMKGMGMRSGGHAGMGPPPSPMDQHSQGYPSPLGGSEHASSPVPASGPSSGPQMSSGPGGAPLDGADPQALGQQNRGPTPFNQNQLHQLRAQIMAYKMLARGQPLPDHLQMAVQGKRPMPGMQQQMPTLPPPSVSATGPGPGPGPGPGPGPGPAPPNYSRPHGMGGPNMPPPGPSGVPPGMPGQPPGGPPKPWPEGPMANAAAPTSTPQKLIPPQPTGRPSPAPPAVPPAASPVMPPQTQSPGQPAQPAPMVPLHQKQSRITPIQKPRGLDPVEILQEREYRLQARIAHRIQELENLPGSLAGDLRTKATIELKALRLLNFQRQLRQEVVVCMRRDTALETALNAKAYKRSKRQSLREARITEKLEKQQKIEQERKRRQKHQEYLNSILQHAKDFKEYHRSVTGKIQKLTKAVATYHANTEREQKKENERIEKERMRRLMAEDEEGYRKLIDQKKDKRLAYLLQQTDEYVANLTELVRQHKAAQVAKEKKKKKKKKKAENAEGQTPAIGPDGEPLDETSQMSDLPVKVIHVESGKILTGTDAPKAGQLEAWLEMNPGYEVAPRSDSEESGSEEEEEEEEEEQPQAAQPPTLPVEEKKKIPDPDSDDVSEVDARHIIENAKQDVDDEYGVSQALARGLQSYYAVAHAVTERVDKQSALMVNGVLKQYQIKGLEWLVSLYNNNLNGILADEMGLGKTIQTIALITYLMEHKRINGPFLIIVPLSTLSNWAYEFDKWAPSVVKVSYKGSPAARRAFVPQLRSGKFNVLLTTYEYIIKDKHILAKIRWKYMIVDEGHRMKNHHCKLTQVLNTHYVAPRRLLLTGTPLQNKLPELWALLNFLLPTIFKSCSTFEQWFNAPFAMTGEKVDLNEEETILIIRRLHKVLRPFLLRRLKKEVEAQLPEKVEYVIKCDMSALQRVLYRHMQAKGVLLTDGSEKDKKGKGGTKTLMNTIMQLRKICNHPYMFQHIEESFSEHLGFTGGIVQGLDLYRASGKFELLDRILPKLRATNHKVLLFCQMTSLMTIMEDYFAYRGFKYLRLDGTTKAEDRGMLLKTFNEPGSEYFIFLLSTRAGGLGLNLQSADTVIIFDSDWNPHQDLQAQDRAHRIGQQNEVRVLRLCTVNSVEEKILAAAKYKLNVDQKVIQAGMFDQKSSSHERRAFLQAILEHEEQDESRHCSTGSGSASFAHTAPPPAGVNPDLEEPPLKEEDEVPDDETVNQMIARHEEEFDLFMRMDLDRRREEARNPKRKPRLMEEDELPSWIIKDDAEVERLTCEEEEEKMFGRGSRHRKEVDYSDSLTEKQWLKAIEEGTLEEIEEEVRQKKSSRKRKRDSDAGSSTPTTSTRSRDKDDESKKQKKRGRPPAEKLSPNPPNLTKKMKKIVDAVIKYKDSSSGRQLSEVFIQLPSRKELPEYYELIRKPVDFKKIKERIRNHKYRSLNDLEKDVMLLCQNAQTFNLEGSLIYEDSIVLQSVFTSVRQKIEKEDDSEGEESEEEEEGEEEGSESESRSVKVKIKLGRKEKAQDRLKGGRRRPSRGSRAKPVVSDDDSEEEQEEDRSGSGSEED
Protocol: (§1) Example A. SMARCA2 HiBiT and SMARCA4 HiBiT Degradation Assay
(§2) Preparation of SMARCA2/4-HiBiT Knock-In Cells
(§3) HiBiT peptide knock-in of SMARCA2 in LgBiT expressing HEK293T cells was performed by CRISPR-mediated tagging system as described Promega. The homozygous HiBiT knock-in on c-terminus SMARCA2 was confirmed by sanger sequence. SMARCA2-HiBiT knock-in Hela monoclonal cell (CS302366) and SMARCA4-HiBiT knock-in Hela monoclonal cell (CS3023226) were purchased from Promega. The heterozygous HiBiT-knock-in was confirmed by sanger sequence in both SMARCA2-HiBiT and SMARCA4-HiBiT monoclonal cells.
(§4) SMARCA2 HiBiT and SMARCA4 HiBiT Degradation Assay in HeLa Cells
(§5) Compounds were dissolved in DMSO to make 10 mM stock and 3-fold series dilutions were further conducted keeping the highest concentration 10 μM. NCIH1693 and NCIH520 cells were maintained in PRMI 1640 medium (Corning Cellgro, Catalog #:10-040-CV) supplemented with 10% v/v FBS (GE Healthcare, Catalog #: SH30910.03) by splitting 1:3 twice a week.
(§6) Dispense 10 ul aliquot of prepared Hela-SMARCA2-HiBiT or Hela-SMARCA4-HiBiT cells (1:1 ratio of cells:Trypan Blue (#1450013, Bio-Rad)) onto cell counting slide (#145-0011, Bio-Rad) and obtain cell density and cell viability using cell counter (TC20, Bio-Rad). Remove appropriate volume of resuspended cells from culture flask to accommodate 2500 cells/well @[…]. Transfer Hela-HiBiT cells to 50 mL conical (#430290, Corning). Spin down at 1000 rpm for 5 min using tabletop centrifuge (SPINCHRON 15, Beckman). Discard supernatant and resuspend cell pellet in modified EMEM (#30-2003, ATCC) cell culture media containing 10% FBS (F2422-500 ML, Sigma), and 1× Penicillin/Streptomycin (200 g/L) (30-002-CI, Corning) to a cell density of 125,000 cells/mL. Dispense […] of resuspended Hela-HiBit cells per well in 384-well TC treated plate (#12-565-343, Thermo Scientific) using standard cassette (#50950372, Thermo Scientific) on Multidrop Combi (#5840310, Thermo Scientific) inside laminar flow cabinet. Dispense test compounds onto plates using digital liquid dispenser (D300E, Tecan). Incubate plates in humidified tissue culture incubator @37° C. for 18 hours. Add […] of prepared Nano-Glo® HiBiT Lytic detection buffer (N3050, Promega) to each well of 384-well plate using small tube cassette (#24073295, Thermo Scientific) on Multidrop Combi, incubate @RT for 30-60 min. Read plates on microplate reader (Envision 2105, PerkinElmer) using 384 well Ultra-Sensitive luminescence mode. Raw data files and compound information reports are swept into centralized data lake and deconvoluted using automated scripts designed by TetraScience, Inc. Data analysis, curve-fitting and reporting done in Dotmatics Informatics Suite using Screening Ultra module.
(§7) In Table 5, A=DC50<0.1 μM; B=0.1 μM≤DC50<1 μM and C=DC50>1 μM. In Table 5, A=Dmax>75% and B=50%<Dmax≤75% and C=Dmax<50%.

SMARCA2 = target: T2, SMARCA2 (Homo sapiens, UniProt P51531); assay: SMARCA2 HiBiT degradation assay in HeLa cells; assay type: cell-based; details: 18 hours incubation
T2 construct: SMARCA2-HiBiT knock-in Hela monoclonal cell (CS302366); host or cells: HeLa SMARCA2-HiBiT knock-in monoclonal cells (heterozygous knock-in)
T2 sequence (P51531 whole entry): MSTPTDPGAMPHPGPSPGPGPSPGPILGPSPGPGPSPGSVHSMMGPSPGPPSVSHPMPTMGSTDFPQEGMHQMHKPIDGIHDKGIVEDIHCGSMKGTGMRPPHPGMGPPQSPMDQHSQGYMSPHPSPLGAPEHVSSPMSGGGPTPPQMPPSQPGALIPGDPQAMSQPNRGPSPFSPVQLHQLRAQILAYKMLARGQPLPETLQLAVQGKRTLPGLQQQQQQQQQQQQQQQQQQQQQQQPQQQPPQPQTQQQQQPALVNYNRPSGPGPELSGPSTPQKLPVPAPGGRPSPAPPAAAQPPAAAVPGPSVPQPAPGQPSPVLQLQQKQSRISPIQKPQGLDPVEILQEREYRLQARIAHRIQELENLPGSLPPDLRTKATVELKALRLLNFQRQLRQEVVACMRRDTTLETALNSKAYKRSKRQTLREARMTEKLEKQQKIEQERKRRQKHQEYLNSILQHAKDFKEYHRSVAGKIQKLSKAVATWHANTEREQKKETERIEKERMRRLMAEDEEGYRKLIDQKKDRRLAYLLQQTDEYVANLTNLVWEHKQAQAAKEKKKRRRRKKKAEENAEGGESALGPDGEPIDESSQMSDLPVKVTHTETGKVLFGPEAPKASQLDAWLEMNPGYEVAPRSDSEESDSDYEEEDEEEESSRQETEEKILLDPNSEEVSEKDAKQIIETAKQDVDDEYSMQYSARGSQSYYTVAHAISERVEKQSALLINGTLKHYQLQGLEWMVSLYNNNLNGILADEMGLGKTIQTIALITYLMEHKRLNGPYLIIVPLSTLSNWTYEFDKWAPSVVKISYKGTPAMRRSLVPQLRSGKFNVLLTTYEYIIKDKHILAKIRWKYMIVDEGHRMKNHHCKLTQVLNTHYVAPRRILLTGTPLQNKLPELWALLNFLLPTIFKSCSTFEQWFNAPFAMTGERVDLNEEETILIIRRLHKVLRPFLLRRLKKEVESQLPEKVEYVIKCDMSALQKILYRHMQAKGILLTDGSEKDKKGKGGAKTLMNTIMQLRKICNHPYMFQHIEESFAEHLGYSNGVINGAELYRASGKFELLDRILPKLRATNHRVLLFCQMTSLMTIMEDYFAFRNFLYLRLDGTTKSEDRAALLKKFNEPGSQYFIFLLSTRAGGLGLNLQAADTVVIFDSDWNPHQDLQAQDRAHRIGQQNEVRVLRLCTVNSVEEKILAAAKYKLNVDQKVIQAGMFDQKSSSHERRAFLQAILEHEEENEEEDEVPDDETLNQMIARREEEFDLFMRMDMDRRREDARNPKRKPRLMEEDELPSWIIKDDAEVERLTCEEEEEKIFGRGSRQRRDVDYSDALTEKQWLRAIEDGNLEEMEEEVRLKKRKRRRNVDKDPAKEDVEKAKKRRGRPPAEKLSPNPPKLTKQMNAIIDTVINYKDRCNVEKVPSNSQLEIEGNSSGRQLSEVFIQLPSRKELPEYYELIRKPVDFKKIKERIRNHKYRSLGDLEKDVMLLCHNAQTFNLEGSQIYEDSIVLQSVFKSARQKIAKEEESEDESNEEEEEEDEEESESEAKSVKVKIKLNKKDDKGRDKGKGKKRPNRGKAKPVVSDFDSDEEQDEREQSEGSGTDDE
Protocol: as §1, §2, §3, §4, §5, §6, §7

| DC50 (SMARCA4) [nM] | Dmax (SMARCA4) [%] | DC50 (SMARCA2) [nM] | Dmax (SMARCA2) [%] | SMILES |
| --- | --- | --- | --- | --- |
| < 100 | > 75 | < 100 | > 75 | CC1(C)CN(CC2CCN(c3ccc4c(c3)C(=O)N([C@H]3CCC(=O)NC3=O)C4)CC2)CCN1C(=O)N1CCc2[nH]c3nnc(-c4ccccc4O)cc3c2CC1 [Example 1, (S)-3-(6-(4-((4-(3-(2-Hydroxyphenyl)-5,6,7,8,9,10-hexahydropyridazino [4′,3′:4,5]pyrrolo[2,3-d]azepine-7-carbonyl)-3,3-dimethylpiperazin-1-yl)methyl)piperidin-1-yl)-1-oxoisoindolin-2-yl)piperidine-2,6-dione] |
| > 1000 | < 50 | 100 to 1000 | 50 to 75 | CCC1CN(C(=O)N2CCN(CC3CCN(c4ccc5c(c4)C(=O)N([C@H]4CCC(=O)NC4=O)C5)CC3)CC2(C)C)CCc2c1[nH]c1nnc(-c3cccc(F)c3O)cc21 (stereo partly drawn) [Example 5, (3S)-3-(6-(4-((4-(9-ethyl-3-(3-fluoro-2-hydroxyphenyl)-5,6,7,8,9,10-hexahydropyridazino[4′,3′:4,5]pyrrolo[2,3-d]azepine-7-carbonyl)-3,3-dimethylpiperazin-1-yl)methyl)piperidin-1-yl)-1-oxoisoindolin-2-yl)piperidine-2,6-dione] |
| 100 to 1000 | < 50 | 100 to 1000 | < 50 | CC1(C)CN(CC2CCN(c3ccc4c(c3)C(=O)N([C@H]3CCC(=O)NC3=O)C4)CC2)CCN1C(=O)N1CC2CCC1Cc1c2[nH]c2nnc(-c3cccc(F)c3O)cc12 (stereo partly drawn) [Example 7, (3S)-3-(6-(4-((4-(3-(3-fluoro-2-hydroxyphenyl)-5,6,7,8,9,10-hexahydro-6,9-(epiminomethano)cyclohepta[4,5]pyrrolo[2,3-c]pyridazine-12-carbonyl)-3,3-dimethylpiperazin-1-yl)methyl)piperidin-1-yl)-1-oxoisoindolin-2-yl)piperidine-2,6-dione] |
| < 100 | > 75 | < 100 | > 75 | C[C@@H]1CN(CC2CCN(c3ccc4c(c3)C(=O)N([C@H]3CCC(=O)NC3=O)C4)CC2)C[C@H](C)N1C(=O)N1CCc2[nH]c3nnc(-c4ccccc4O)cc3c2CC1 [Example 2, (S)-3-(6-(4-(((3R,5S)-4-(3-(2-hydroxyphenyl)-5,6,7,8,9,10-hexahydropyridazino[4′,3′:4,5]pyrrolo[2,3-d]azepine-7-carbonyl)-3,5-dimethylpiperazin-1-yl)methyl)piperidin-1-yl)-1-oxoisoindolin-2-yl)piperidine-2,6-dione] |

More lines, now with the values behind:

| SMILES | DC50 (SMARCA4) [nM] | Dmax (SMARCA4) [%] | DC50 (SMARCA2) [nM] | Dmax (SMARCA2) [%] |
| --- | --- | --- | --- | --- |
| CC1(C)CN(CC2CCN(c3ccc4c(c3)C(=O)N([C@H]3CCC(=O)NC3=O)C4)CC2)CCN1C(=O)N1C2CCC1Cc1c([nH]c3nnc(-c4cccc(F)c4O)cc13)C2 (stereo partly drawn) [Example 6, (3S)-3-(6-(4-((4-(3-(3-fluoro-2-hydroxyphenyl)-6,7,8,9,10,11-hexahydro-5H-6,9-epiminocycloocta[4,5]pyrrolo[2,3-c]pyridazine-12-carbonyl)-3,3-dimethylpiperazin-1-yl)methyl)piperidin-1-yl)-1-oxoisoindolin-2-yl)piperidine-2,6-dione] | 100 to 1000 | 50 to 75 | < 100 | > 75 |
| CC1(C)CN(CC2CCN(c3ccc4c(c3)C(=O)N([C@H]3CCC(=O)NC3=O)C4)CC2)CCN1C(=O)N1CCc2[nH]c3nnc(-c4cccc(F)c4O)cc3c2CC1 [Example 4, (S)-3-(6-(4-((4-(3-(3-Fluoro-2-hydroxyphenyl)-5,6,7,8,9,10-hexahydro-pyridazino[4′,3′:4,5]pyrrolo[2,3-d]azepine-7-carbonyl)-3,3-dimethylpiperazin-1-yl)methyl)piperidin-1-yl)-1-oxoisoindolin-2-yl)piperidine-2,6-dione] | > 1000 | < 50 | < 100 | 50 to 75 |
| O=C1CC[C@H](N2Cc3ccc(N4CCC(CN5CCN(C(=O)N6CCc7[nH]c8nnc(-c9ccccc9O)cc8c7CC6)CC5)CC4)cc3C2=O)C(=O)N1 [Example 3, (S)-3-(6-(4-((4-(3-(2-hydroxyphenyl)-5,6,7,8,9,10-hexahydropyridazino[4′,3′:4,5]pyrrolo[2,3-d]azepine-7-carbonyl)piperazin-1-yl)methyl)piperidin-1-yl)-1-oxoisoindolin-2-yl)piperidine-2,6-dione] | < 100 | > 75 | < 100 | > 75 |
